How the values were obtained:
Format in all cases: in vivo
Puccinia recondita = assay: foliar fungal disease test on plants, Puccinia recondita (wheat); details: 100 ppm foliar spray plus root drench ca. 40 ppm a.i./dry soil; protectant
Erysiphe graminis = assay: foliar fungal disease test on plants, Erysiphe graminis (barley); details: 100 ppm foliar spray plus root drench ca. 40 ppm a.i./dry soil; inoculated 24 hours before treatment
Venturia inaequalis = assay: foliar fungal disease test on plants, Venturia inaequalis (apple); details: 100 ppm foliar spray plus root drench ca. 40 ppm a.i./dry soil; protectant
Pyricularia oryzae = details: 100 ppm foliar spray plus root drench ca. 40 ppm a.i./dry soil; protectant
Cercospora arachidicola = assay: foliar fungal disease test on plants, Cercospora arachidicola (peanut); details: 100 ppm foliar spray plus root drench ca. 40 ppm a.i./dry soil; protectant
Plasmopara viticola = assay: foliar fungal disease test on plants, Plasmopara viticola (vine); details: 100 ppm foliar spray plus root drench ca. 40 ppm a.i./dry soil; protectant
Wheat = assay: whole plant screen for plant growth regulating activity, wheat; details: 4000 ppm (4 kg/ha), after 2-6 weeks
Protocol: (§1) These compounds were tested on a whole plant screen for plant growth regulating activity against six species of plant. The plant species used in this screen are presented in Table VIII with the leaf stage at which they were sprayed.
(§2) A formulation of each chemical was applied at 4000 ppm (4 kg/ha in a 1000 1/ha field volume) using a tracksprayer and a SS8004E (Teejet) nozzle. Additional tests were done on tomatoes at 2000 and 500 ppm.
(§3) After spraying, the plants were grown in a glasshouse with 25° C. day/22° C. night temperatures. The exception to this were the temperate cereals, wheat and barley which were grown in 13°-16° C. day/11°-13° C. night temperatures. Supplementary lighting was supplied when necessary to provide an average photoperiod of 16 hours (14 hours minimum).
(§4) After 2-6 weeks in the glasshouse, depending on species and time of year, the plants were visually assessed for morphological characteristics against a control plant sprayed with a blank formulation.
Wheat WW Timmo 1-1.5 leaves

Tomato = assay: whole plant screen for plant growth regulating activity, tomato; parameters: key to greening effect, TO* / greening effect, TO^+ / apical damage, TO* / tillering or side shooting, TO* / apical damage, TO^+ / tillering or side shooting, TO^+: Greening effect; Apical damage; Tillering or side shooting; details: after 2-6 weeks
Protocol: as §1, §2, §3, §4
To- TO Ailsa 2-21/2 leaves

Rice = assay: whole plant screen for plant growth regulating activity, rice; details: 4000 ppm (4 kg/ha), after 2-6 weeks
Protocol: as §1, §2, §3, §4
Rice RC Ishikari 2-21/2 leaves

Maize = assay: whole plant screen for plant growth regulating activity, maize; parameters: key: Greening effect; Apical damage; Tillering or side shooting; details: 4000 ppm (4 kg/ha), after 2-6 weeks
Protocol: as §1, §2, §3, §4

[1] = test system: Tetranychus urticae (spider mites - adult); assay: insecticidal test TUa, spider mites adult, contact; details: 500 ppm, French bean leaf, duration 3
Protocol: (§5) The activity of the compound was determined using a variety of insect, mite and nematode pests. The compound was used in the form of liquid preparations containing from 100 to 500 parts per million (ppm) by weight of the compound. The preparations were made by dissolving the compound in acetone and diluting the solutions with water containing 0.1% by weight of a wetting agent sold under the trade name "SYNPERONIC" NX until the liquid preparations contained the required concentration of the product. "SYNPERONIC" is a Registered Trade Mark.
(§6) The test procedure adopted with regard to each pest was basically the same and comprised supporting a number of the pests on a medium which was usually a host plant or a foodstuff on which the pests feed, and treating either or both the pests and the medium with the preparations. The mortality of the pests was then assessed at periods usually varying from one to seven days after the treatment. […]

[2] = test system: Tetranychus urticae (spider mites - ova); assay: insecticidal test TUe, spider mites ova, contact; details: 500 ppm, French bean leaf, duration 6
Protocol: as §5, §6

Myzus persicae = assay: insecticidal test MP, aphids, contact; details: 500 ppm, Chinese cabbage leaf, duration 3
Protocol: as §5, §6

Nilaparvata lugens = assay: insecticidal test NL, brown plant hopper nymphs, contact; details: 500 ppm, rice plant, duration 3
Protocol: as §5, §6

Musca domestica [3] = assay: insecticidal test MD, houseflies adults, contact; details: 500 ppm, cotton wool/sugar, duration 1
Protocol: as §5, §6

Blattella germanica = assay: insecticidal test BG, cockroach nymphs, residual; details: 500 ppm, plastic pot, duration 3
Protocol: as §5, §6

Heliothis virescens = assay: insecticidal test HV, tobacco budworm larvae, residual; details: 500 ppm, cotton leaf, duration 3
Protocol: as §5, §6

Spodoptera exigua = assay: insecticidal test SP, lesser army worm larvae, residual; details: 500 ppm, cotton leaf, duration 3
Protocol: as §5, §6

Diabrotica balteata = assay: insecticidal test DB, rootworm larvae, residual; details: 500 ppm, filter paper/maize seed, duration 3
Protocol: as §5, §6

Meloidogyne incognita = assay: nematode test MI, tomato root knot eelworm larvae, semi in-vitro, residual; details: 125 ppm, duration 7
Protocol: as §5, §6

Musca domestica [4] = assay: whole plant or invertebrate
Protocol: A sample of compound 9 was diluted in 2 mls acetone and made up to a 2000 ppm solution with 0.1% aqueous synperonic solution. The solution (1 ml) was then sprayed directly onto twenty mixed sex houseflies held in a drinking cup. Immediately after spraying the cups were inverted and left to dry. An assessment of knockdown was made when the cups were righted 15 minutes later. The flies were then provided with a 10% sucrose solution on a cotton wool pad, and held for 48 hours in a holding room conditioned at 25° C. and 65% relative humidity before a mortality assessment was made.

SMILES | disease control grade, PUCCINIA RECONDITA (Wheat) (Puccinia recondita) | disease control grade, ERYSIPHE GRAMINIS (Barley) (Erysiphe graminis) | disease control grade, VENTURIA INAEQUALIS (Apple) (Venturia inaequalis) | disease control grade, P[…] (Rice) (Pyricularia oryzae) | disease control grade, CERCOSPORA ARACHIDICOLA (Peanut) (Cercospora arachidicola) | disease control grade, PLASMOPARA VITICOLA (Vine) (Plasmopara viticola) | greening effect, TO^+ (Tomato; 500 ppm) | retardation, TO^+ (Tomato; 500 ppm) | retardation, TO* (Tomato; 2000 ppm) | also measured
COC(=O)/C(=C/SC)c1ccccc1Oc1ccccc1 [1 of Table II] | 4 | 3 (trace - 5% of disease on untreated plants) | 4 | 2 (6-25% of disease on untreated plants) | 0 (60-100% of disease on untreated plants) | 4 | G | 1 (10-30%) | 1 (10-30%) | retardation, WW (Wheat): 1 (10-30%)
COC(=O)/C(=C/SC)c1ccccc1 [1 of Table I] | 0 (60-100% of disease on untreated plants) | 0 (60-100% of disease on untreated plants) | 0 (60-100% of disease on untreated plants) | 1 (26-59% of disease on untreated plants) | 0 (60-100% of disease on untreated plants) | 0 (60-100% of disease on untreated plants) |  | 1 (10-30%) | 1 (10-30%) | retardation, RC (Rice): 2 (21-60%)
COC(=O)/C(=C\SC)c1ccccc1 [2 of Table I] | 0 (60-100% of disease on untreated plants) | 0 (60-100% of disease on untreated plants) | 0 (60-100% of disease on untreated plants) | 0 (60-100% of disease on untreated plants) | 0 (60-100% of disease on untreated plants) | 1 (26-59% of disease on untreated plants) | G | 2 (21-60%) | 1 (10-30%) | retardation, RC (Rice): 1 (10-30%); greening effect, TO* (Tomato; 2000 ppm): G
COC(=O)/C(=C/SC)c1ccccc1/C=C/c1ccccc1 [9 of Table I] | 3 (trace - 5% of disease on untreated plants) | 0 (60-100% of disease on untreated plants) | 4 | 4 | 1 (26-59% of disease on untreated plants) | 0 (60-100% of disease on untreated plants) | G |  |  | apical damage, TO^+ (Tomato; 500 ppm): A; tillering or side shooting, TO^+ (Tomato; 500 ppm): T; apical damage, TO* (Tomato; 2000 ppm): A; greening effect, TO* (Tomato; 2000 ppm): G; tillering or side shooting, TO* (Tomato; 2000 ppm): T
COC(=O)/C(=C\SC)c1ccccc1/C=C/c1ccccc1 [10 of Table I] | 2 (6-25% of disease on untreated plants) | 0 (60-100% of disease on untreated plants) | 4 | 3 (trace - 5% of disease on untreated plants) | 4 | 4 |  |  |  | 
COC(=O)/C(=C/SC)c1ccccc1CCc1ccc(F)cc1 [96 of Table I] | 0 (60-100% of disease on untreated plants) | 0 (60-100% of disease on untreated plants) | 3 (trace - 5% of disease on untreated plants) | 0 (60-100% of disease on untreated plants) | 0 (60-100% of disease on untreated plants) | 0 (60-100% of disease on untreated plants) | G |  | 1 (10-30%) | apical damage, MZ (Maize): A; greening effect, MZ (Maize): G
COC(=O)/C(=C/SC)c1ccccc1/C=C/c1ccccc1 [Compound 9 of Table I] |  |  |  |  |  |  |  |  |  | grading of mortality, TUA [1]: 0 (less than 50% mortality); grading of mortality, TUE [2]: 0 (less than 50% mortality); grading of mortality, MP (Myzus persicae): 0 (less than 50% mortality); grading of mortality, NL (Nilaparvata lugens): 0 (less than 50% mortality); grading of mortality, MD (Musca domestica [3]): 5 (50-79% mortality); grading of mortality, BG (Blattella germanica): 0 (less than 50% mortality); grading of mortality, HV (Heliothis virescens): 0 (less than 50% mortality); grading of mortality, SP (Spodoptera exigua): 0 (less than 50% mortality); grading of mortality, DB (Diabrotica balteata): 5 (50-79% mortality); grading of root knot reduction, MI* (Meloidogyne incognita): 9 (70-100% root knot reduction as compared to an untreated plant for Meloidogyne incognita); knockdown (Musca domestica [4]; 1 ml of 2000 ppm solution sprayed on twenty houseflies, assessed 15 minutes later): 88%; mortality at 2000 ppm (Musca domestica [4]; Musca domestica, topical, 48 h, read-out: kill): 15%

Source: patent publication US5145954A, “Derivatives of alphaphenylacrylic acid and their use in agriculture” (Imperial Chemical Industries PLC, priority 1986, dated 1992)
